Assay [1] has as its target T1, TXA2 receptor (Oryctolagus cuniculus, UniProt Q6WQI8).
T1 sequence (Q6WQI8 1-233): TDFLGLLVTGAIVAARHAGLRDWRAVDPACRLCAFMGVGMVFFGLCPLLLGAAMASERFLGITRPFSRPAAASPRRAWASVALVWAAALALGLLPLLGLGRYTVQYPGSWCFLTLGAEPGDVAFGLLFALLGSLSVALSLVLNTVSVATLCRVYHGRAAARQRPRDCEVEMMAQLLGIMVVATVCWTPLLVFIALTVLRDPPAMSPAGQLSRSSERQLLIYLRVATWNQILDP
Description: TXA2 Receptor Binding Test 1 ([3H]SQ29548, washed rabbit platelets). The conditions noted are these: [3H]SQ29548 3 nM, rabbit washed platelets 10 mg/ml, 25° C., 60 minutes. Also noted: species or system New Zealand White rabbit. The procedure: TXA2 Receptor Binding Test 1
Blood from a New Zealand White rabbit is taken in a vessel containing ACD solution (prepared by dissolving 1.175 g of sodium citrate, 0.685 g of citric acid and 1 g of dextrose in 50 ml of distilled water) and centrifuged at 180×g for 10 minutes at room temperature to obtain platelet-rich plasma. The obtained platelet-rich plasma is centrifuged at […] at room temperature to precipitate platelets. The platelets are then suspended in 50 mM Tris-HCl buffer (pH 7.2, containing 0.154M of NaCl) and the suspension is centrifuged at 2800×g for 15 minutes at 4° C. These operations are repeated twice to prepare washed platelets and the concentration of the platelets are adjusted to a final concentration of 10 mg/ml (wet weight).
As the ligand of TXA2, tritium-labelled SQ29548 ([^3 H]SQ29548) is used. In the antagonism test, 20 μl of [^3 H]SQ29548 having a final concentration of 3 nM is added to 500 μl of a platelet suspension having a platelet concentration of 10 mg/ml and 2.6 μl of a solution of a test compound dissolved in an appropriate solvent is added thereto. After incubating the resulting mixture at 25° C. for 60 minutes, the mixture is filtered through a glass filter by the cell harvester method. After washing the filter with 50 mM Tris-HCl buffer (3×4 ml), the radioactivity of the filter is measured by a scintillation counter, thereby measuring the amount of the [^3 H]SQ29548 bound to platelets. In the saturation test, 20 μl of [^3 H]SQ29548 is added to a final concentration of 0.1-50 nM and 2.6 μl of BM13505 having a final concentration of 1 μM is added so as to check non-specific binding, followed by carrying out the binding test. The concentration of the test compound at which binding of [^3 H]SQ29548 is inhibited by 50% is determined as the IC50 value.
The results of the evaluation of the activities of the compounds of the present invention by this method are summarized d in Table 3.

Assay [2] has as its system platelet aggregation induced by ADP. Description: Platelet Aggregation-Inhibition Action 2 (ADP-induced, platelet-rich plasma). The format is cell-based. The conditions noted are these: ADP 1-3 μM final, PRP, compound added one minute before ADP. The procedure:
Platelet Aggregation-Inhibition Action 2
(§1) Blood collected from medial cubital vein is centrifuged at 800 rmp for 10 minutes and the upper portion of the resultant is collected as platelet-rich plasma PRP). The PRP is dividedly poured into small test tubes and ADP is added thereto (final concentration: 1-3 μM) so as to induce platelet aggregation. The degree of platelet aggregation is measured in terms of change in turbidity by a platelet aggregation measuring apparatus Hematoracer, NIKO BIOSCIENCE). The compound is added one minute before the addition of ADP the concentration of the compound at which the aggregation is inhibited by 50% is calculated as IC50 value.

For assay [3], the system named is platelet aggregation induced by TXA2 agonist U-46619. Description: Platelet Aggregation-inhibition Action 1 (U-46619-induced, platelet-rich plasma). The format is cell-based. The conditions noted are these: U-46619 1-4 μM final, PRP, compound added one minute before U-46619. The procedure: Platelet Aggregation-inhibition Action 1
as §1, with “plasma (PRP).” for “plasma PRP).”, “and a TXA2 agonist U-46619” for “and ADP”, “concentration: 1-4” for “concentration: 1-3”, “apparatus (Hematoracer,” for “apparatus Hematoracer,”, “of U-46619 and” for “of ADP”

As a reminder, the IC50 is the concentration that inhibits the measured activity by half. A higher IC50 goes with a need for much substance. As to `O=C(O)COc1cccc2c(CCOCc3ccc(-c4ccccc4)cc3)coc12` [Example 46, (3-(2-(4-phenylbenzyloxy)ethyl)benzofuran-7-yloxy)acetic acid], the IC50 in assay [1] is 596 nM.

In turn, `O=C(O)COc1cccc2c1ccn2CCOCC(c1ccccc1)c1ccccc1` [Example 109, (1-(2-(2,2-diphenylethoxy)ethyl)indole-4-yloxy)acetic acid] had a half-maximal inhibitory concentration (IC50) in assay [2] of 27900 nM.

In the case of `O=C(O)COc1cccc2c(CNS(=O)(=O)CCOc3ccccc3)coc12` [Example 4], in assay [3], the IC50 was found to be 1100 nM.

As to `Cc1oc2c(OCC(=O)O)cccc2c1CNS(=O)(=O)CCCc1ccccc1` [Example 17, (3-(((3-phenylpropyl)sulfonylamino)methyl)-2-methylbenzofuran-7-yloxy)acetic acid], the IC50 was 1.92 nM in assay [1] and 140 nM in assay [3].

Turning to `O=C(O)COc1cccc2c(CCOCC(=O)c3ccccc3)coc12` [Example 47, (3-(2-(2-oxo-2-phenylethoxy)ethyl)benzofuran-7-yloxy)acetic acid], the half-maximal inhibitory concentration (IC50) in assay [1] was 3670 nM.

As for `O=C(O)COc1cccc2cc(COCCOC(c3ccccc3)c3ccccc3)oc12` [Example 130, (2-(2-diphenylmethoxyethoxymethyl)benzofuran-7-yloxy)acetic acid], in assay [3], the concentration for half-maximal inhibition (IC50) was found to be 18000 nM.

Turning to `CC(C)c1oc2c(OCC(=O)O)cccc2c1CNS(=O)(=O)CCc1ccccc1` [Example 19, (3-(((2-phenylethyl)sulfonylamino)methyl)-2-isopropylbenzofuran-7-yloxy)acetic acid], the values for the IC50 in assay [1] and in assay [3] were 788 nM and 1400 nM, respectively.

Turning to `Cc1oc2c(OCC(=O)O)cccc2c1CCS(=O)(=O)CCc1ccccc1` [Example 33, (3-(2-(2-phenylethylsulfonyl)ethyl)-2-methylbenzofuran-7-yloxy)acetic acid], the IC50 was 91.9 nM in assay [1] and 1100 nM in assay [3].

As for `Cc1oc2c(OCC(=O)O)cccc2c1CCON=C(c1ccccc1)c1ccccc1` [Example 35, (3-(2-(diphenylmethyleneaminoxy)ethyl)-2-methylbenzofuran-7-yloxy)acetic acid], the concentration for half-maximal inhibition (IC50) in assay [2] came to 7800 nM; in assay [3], 4500 nM.

The compound `O=C(O)COc1cccc2c(COCC=C(c3ccccc3)c3ccccc3)coc12` [Example 94, (3-((3,3-diphenyl-2-propenyloxy)methyl)benzofuran-7-yloxy)acetic acid] came in with a half-inhibitory concentration (IC50) in assay [3] of 710 nM.

`Cc1oc2c(OCC(=O)O)cccc2c1CCNS(=O)(=O)CCc1ccccc1` [Example 25, (3-(2-(2-phenylethylsulfonylamino)ethyl)-2-methylbenzofuran-7-yloxy)acetic acid]: the concentration for half-maximal inhibition (IC50) in assay [1] was 4.79 nM; in assay [3], 140 nM.

In the case of `Cc1oc2c(OCC(=O)O)cccc2c1CCSC(c1ccccc1)c1ccccc1` [Example 81, (3-(2-(diphenylmethylthio)ethyl)-2-methylbenzofuran-7-yloxy)acetic acid], the IC50 in assay [2] stood at 4500 nM; in assay [3] it was 640 nM.

Turning to `O=C(O)COc1cccc2c(COCCOC(c3ccccc3)c3ccccc3)coc12` [Example 59, (3-((2-(diphenylmethoxy)ethoxy)methyl)benzofuran-7-yloxy)acetic acid], the IC50 in assay [2] came out at 600 nM; in assay [3] it was 330 nM.

`O=C(O)COc1cccc2c(CCSC(c3ccccc3)c3ccccc3)c(CO)oc12` [Example 83, (2-hydroxymethyl-3-(2-(diphenylmethylthio)ethyl)benzofuran-7-yloxy)acetic acid]: the values for the 50% inhibitory concentration (IC50) in assay [2] and in assay [3] were 3300 nM and 460 nM, respectively.

Turning to `O=C(O)COc1cccc2c(CC(O)CCC(c3ccccc3)c3ccccc3)coc12` (stereo not drawn) [Example 101, (3-(2-hydroxy-5,5-diphenylpentyl)benzofuran-7-yloxy)acetic acid], the figures for the IC50 in assay [2] and in assay [3] were 1800 nM and 1500 nM, respectively.

For `O=C(O)COc1cccc2c1ccn2CCSC(c1ccccc1)c1ccccc1` [Example 112, (1-(2-(diphenylmethylthio)ethyl)indole-4-yloxy)acetate], the half-maximal inhibitory concentration (IC50) was found to be 4500 nM in assay [2] and 840 nM in assay [3].

With `Cc1oc2c(OCC(=O)O)cccc2c1CCNS(=O)(=O)Cc1ccccc1` [Example 24, (3-(2-(benzylsulfonylamino)ethyl)-2-methylbenzofuran-7-yloxy)acetic acid], the IC50 was 18.6 nM in assay [1] and 88 nM in assay [3].

In assay [2], `O=C(O)COc1cccc2c(CCCSC(c3ccccc3)c3ccccc3)coc12` [Example 91, (3-(3,3-diphenylmethylthiopropyl)benzofuran-7-yloxy)acetic acid] gave an IC50 of 1900 nM.

As for `O=C(O)COc1cccc2c(CNS(=O)(=O)CCCc3ccccc3)coc12` [Example 9, (3-((3-phenylpropylsulfonylamino)methyl)benzofuran-7-yloxy)acetic acid], the IC50 was 4.46 nM in assay [1] and 300 nM in assay [3].

As to `O=C(O)COc1cccc2c(CCOC(c3ccccc3)c3ccccc3)coc12` [Example 43, (3-(2-(diphenylmethoxy)ethyl)benzofuran-7-yloxy)acetate], the IC50 in assay [1] is 69.6 nM; in assay [3], 4000 nM.

Take `O=C(O)COc1cccc2c(CCSCC(c3ccccc3)c3ccccc3)coc12` [Example 88, (3-(2-(2,2-diphenylethylthio)ethyl)benzofuran-7-yloxy)acetic acid]: the values for the IC50 in assay [2] and in assay [3] were 730 nM and 510 nM, respectively.

On to `O=C(O)COc1cccc2c1CCN2CCSC(c1ccccc1)c1ccccc1` [Example 125, (1-(2-(diphenylmethylthio)ethyl)indoline-4-yloxy)acetic acid], for which the IC50 in assay [2] is 3100 nM; in assay [3] it was 720 nM.

In the case of `O=C(O)COc1cccc2c(COCC(c3ccccc3)c3ccccc3)coc12` [Example 49, (3-((2,2-diphenylethoxy)methyl)benzofuran-7-yloxy)acetic acid], in assay [2], the IC50 turned out to be 8200 nM.

Regarding `C[C@H](COC(c1ccccc1)c1ccccc1)OCc1coc2c(OCC(=O)O)cccc12` [Example 97, (R)-(3-((2-(diphenylmethoxy)-1-methylethoxy)methyl)benzofuran-7-yloxy)acetic acid], the concentration for half-maximal inhibition (IC50) was 3400 nM in assay [2] and 1600 nM in assay [3].

In turn, `C[C@@H](COCc1coc2c(OCC(=O)O)cccc12)c1ccccc1` [Example 51, (R)-(3-((2-phenylpropyloxy)methyl)benzofuran-7-yloxy)acetic acid] showed an IC50 in assay [1] of 229 nM.

As to `O=C(O)COc1cccc2c(CCSC(c3ccccc3)c3ccccc3)c(CCO)oc12` [Example 85], the values for the half-maximal inhibitory concentration (IC50) in assay [2] and in assay [3] were 750 nM and 620 nM, respectively.

`O=C(O)COc1cccc2c(COC(Cc3ccccc3)Cc3ccccc3)coc12` [Example 53, (3-((1-benzyl-2-phenylethoxy)methyl)benzofuran-7-yloxy)acetic acid] showed an IC50 in assay [1] of 2020 nM.

Take `O=C(O)COc1cccc2c(CNS(=O)(=O)CCc3ccccc3)coc12` [Example 8, (3-(((2-phenylethyl)sulfonylamino)methyl)benzofuran-7-yloxy)acetic acid]: the half-maximal inhibitory concentration (IC50) in assay [2] was 305000 nM; in assay [3], 1000 nM.

Regarding `O=C(O)COc1cccc2c1CCN2CCOCC(c1ccccc1)c1ccccc1` [Example 122, (1-(2-(2,2-diphenylethoxy)ethyl)indoline-4-yloxy)acetic acid], the half-inhibitory concentration (IC50) in assay [2] amounted to 2700 nM; in assay [3], 1400 nM.

Source of the values: patent US6323235A, “Benzene-condensed heterocyclic derivatives and their uses” (priority 1995, dated 2001).
